Assay results published in article PMC12412453 (Toxicology, 2021).
Where “and” joins values, the source holds several entries; their conditions need not be identical. Identical values can stand only once.

How the values were obtained:
[1] = system: bone marrow of rhesus macaques; conditions: ref Rao et al., 2005; cited from earlier work
[2] = system: peripheral blood and bone marrow of rhesus macaques; conditions: single and repeated administration, ref Hotchkiss et al., 2008; cited from earlier work
[3] = Cytotoxicity by ATP assay; conditions: rhesus macaque
[4] = system: primary macaque hepatocytes (PMHs); test: Cytotoxicity by ATP assay; conditions: for Max. con. / Cytotoxicity: PMH, 24-h treatment; for Max. con.: maximum concentration
[5] = reported findings; ref References column of Table 1; cited from earlier work
[6] = system: primary human hepatocytes (PHHs); conditions: ref Seo et al., 2020, cited from earlier work; for Cytotoxicity / Max. con.: PHH; for Cytotoxicity: ATP assay, 24-h treatment; for Max. con.: maximum concentration
[7] = system: primary human hepatocytes (PHHs); conditions: ref Seo et al., 2020, cited from earlier work; for BMD50: PHH CometChip data reanalyzed using PROAST; for BMDL50–BMDU50 / Potency ranking / LEC (lowest effective concentration) / BMDU/BMDL / DNA damage (ratio of %DNA in tail at highest concentration to vehicle control): PHH; for BMDL50–BMDU50: 90 % confidence interval of BMD50; for Potency ranking: rank by BMD50 among nine positive compounds; for LEC (lowest effective concentration): lowest concentration positive in comet assay
[8] = system: primary macaque hepatocytes (PMHs); test: CometChip assay; conditions: for BMDU/BMDL / DNA damage (ratio of %DNA in tail at highest concentration to vehicle control) / LEC (lowest effective concentration) / BMDL50–BMDU50 / Potency ranking: PMH; for BMD50: PMH CometChip data, PROAST exponential model; for DNA damage (ratio of %DNA in tail at highest concentration to vehicle control) / LEC (lowest effective concentration): 24-h treatment; for LEC (lowest effective concentration): lowest concentration positive in comet assay; for BMDL50–BMDU50: 90 % confidence interval of BMD50; for Potency ranking: rank by BMD50 among nine positive compounds
[9] = system: peripheral blood lymphocytes of male rhesus macaques; conditions: single dose of 50 mg/kg, ref Dobrovolsky et al., 2009; cited from earlier work
[10] = reported findings; ref References column of Table 1; cited from earlier work; remark: listed apart in the source
Vero cells = conditions: ref Gomes et al., 2021; cited from earlier work

| SMILES | Max. con. [4] [µM] | Cytotoxicity ([4]; ATP assay) | Genotoxicity assay findings in vivo [5] | Cytotoxicity [6] | Max. con. [6] | BMD50 [7] [µM] | BMDL50–BMDU50 [7] [µM] | Potency ranking [7] | LEC (lowest effective concentration) [7] [µM] | BMDU/BMDL [7] | DNA damage (ratio of %DNA in tail at highest concentration to vehicle control) [7] | BMDU/BMDL [8] | BMD50 [8] | DNA damage (ratio of %DNA in tail at highest concentration to vehicle control) [8] | LEC (lowest effective concentration) [8] [µM] | BMDL50–BMDU50 [8] [µM] | Potency ranking [8] | other results |
| --- | --- | --- | --- | --- | --- | --- | --- | --- | --- | --- | --- | --- | --- | --- | --- | --- | --- | --- |
| S=P(N1CC1)(N1CC1)N1CC1 [thiotepa] |  |  |  |  |  |  |  |  |  |  |  |  |  |  |  |  |  | chromosomal aberrations in bone marrow [1]: induced chromosomal aberrations |
| O=P1(N(CCCl)CCCl)NCCCO1 (stereo not drawn) [CPA, cyclophosphamide] | 5000 | +++ (> 50 %) | (+) for CA, MN, Pig-a, TG, and comet | + (11–30 %) | 10,000 μM | 248.2 | 135 to 437 | 8 | 1768 | 3.2 | ++ (2 < ratio ≤ 5) | 2.3 | 253 µM and 253.8 µM | +++ (the ratio > 5) | 937.5 | 165 to 372 | 7 | micronucleated reticulocytes [2]: significantly increased; viability at 24 h, 2500 µM [3]: 50%; cell viability ([6]; PHHs, 10,000 μM): 88%; fold increase in % tail DNA (DNA damage) compared to the vehicle control ([8]; PMHs, highest acceptable concentration, range given for four compounds together): 6.1–8.1 fold; LEC fold higher in PHHs than in PMHs ([8]; comet assay LEC, PHH vs PMH): 2 fold |
| CCN(N=O)C(N)=O [ENU, N-ethyl-N-nitrosourea] | 3200 | + (11–30 %) | (+) for CA, MN, Pig-a, TG, comet | − (cytotoxicity of 0–10 %) | 3200 µM | 47.3 | 25.3 to 83.5 | 7 | 800 | 3.3 | +++ (the ratio > 5) | 2.3 | 683 µM | +++ (the ratio > 5) | 2400 | 439 to 1030 | 8 | cytotoxic effects (in words) ([4]; PMHs, ATP assay, 24-h exposure): cytotoxic effects over the same range of concentrations, but only in PMHs; Pig-a and Hprt mutant frequencies [9]: significantly increased; Genotoxicity assay findings in vitro [10]: (+) for MLA, CA, MN, Pig-a, Hprt, comet, and UDS; BMD50 fold higher in PMHs than in PHHs (lower in PHHs) ([8]; CometChip BMD50, PMH vs PHH): 8–22 fold |
| Cc1c(N(C)CS(=O)(=O)[O-])c(=O)n(-c2ccccc2)n1C.[Na+] [dipyrone] |  |  |  |  |  |  |  |  |  |  |  |  |  |  |  |  |  | DNA damage by comet assay (Vero cells): significant increases in DNA damage |
